Laboratory results taken from patent US20070009986A1, “Compositions for modulating immune cell activity and methods for detection thereof” (priority 2003, published 2007).

Test system: CD8+CD45RO+ T-cell migration towards and away from HIV-1gp120
Test: Inhibitor profile of T-cell movement towards and away from recombinant X4 gp120 in transmigration assays
Assay type: cell-based, human
Details: for inhibition of migration away from gp120: T-cells including HIV-specific CTL
Protocol: Transmigration assays: Transmigration assays were performed in a transwell system with a polycarbonate membrane of 6.5-mm diameter with 5 μm pore size (Corning, Corning, N.Y.) as described (Kim et al., 1998, Blood 91:4434-4443; Poznansky et al., 2000, Nat Med 6:543-548). Purified T-cell subpopulations (5×10^4 cells) were added to the upper chamber of each well in a total volume of 150 μl Iscove's modified media. SDF-1α (PeproTech, Rocky Hill, N.J.) or recombinant HIV-1 gp120 (Immunodiagnostics, Woburn, Mass., AIDS Reagent Repository, NIH or RW) was used at concentrations ranging from 2 ng/ml to […] in the lower, upper, or both lower and upper chambers of the transwell to generate a standard “checkerboard” analysis matrix of positive, negative and absent gradients. Recombinant variable loop deletion mutants of HIV-1IIIB gp120 including V1, V1.V2, and V1.V2.V3, were also used in these assays. Transwells were incubated for 3 hours at 37° C., after which cells were collected from the lower chamber and counted.
Specific components of the Gi-protein coupled receptor signaling pathway for SDF-1 can be blocked by a number of different chemical inhibitor (Poznansky et al., 2000, Nat Med 6:543-548; Poznansky et al., 2002, Clin. Invest. 109:1101-1110; Sotsios et al., 1999, J. Immunol. 163:5954-5963; Vlahakis et al. 2001, J. Clin. Invest. 107:207-215). The inhibitor profile for movement of resting T-cell subpopulations towards and away from recombinant X4 gp120 in transmigration assays had been established.

Compound	inhibition of migration away from gp120	inhibition of T-cell migration towards and away from HIV-1gp120 (CD8+CD45RO+ T-cells incubated with inhibitor prior to transmigration assay, FIG. 2)
Nc1ncnc2c1nc(Br)n2[C@@H]1O[C@@H]2COP(=O)(O)O[C@H]2[C@H]1O [8-Br-cAMP]	inhibited	–
pertussis toxin	inhibited	significantly inhibited
